In US9918972B2, “Treatment of leukemia with artemisinin derivatives and combinations with other antineoplastic agents” (UNIVERSITY OF MARYLAND, BALTIMORE, priority 2014, dated 2018):

What was measured:
MOLM14 cells [1] = experiment: alamarBlue cytotoxicity assay, single-drug IC50, 48 h; format: cell-based, human; conditions: Homo sapiens, MOLM-14; MOLM14, single drug, 48 h, alamarBlue
Protocol: Peripheral wells were filled with sterile water to minimize the effects of evaporation. […] Results were normalized to cells treated with vehicle (≦0.5% DMSO) alone. IC50s were calculated using CompuSyn software and represent the means of at least three experiments performed in triplicate.

KOPN8 cells = experiment: as above; format: cell-based; conditions: Homo sapiens, KOPN-8
Protocol: Cytotoxicity was assessed using alamarBlue assays (Life Technologies, Grand Island, N.Y.; used for IC50 determinations and all drug combinations except the drug combination screen (method described separately below)) or Trypan Blue dye exclusion (Life Technologies, Grand Island, N.Y.; used only for experiments using inhibitors that could interfere with alamarBlue assay performance (NAC, Tiron, DFO)).
Cell lines were seeded in 96-well tissue culture plates at 10^4 cells per well (myeloid leukemia lines) or 2×10^4 cells per well (lymphoid leukemia lines) in culture medium, followed by addition of drugs at the indicated concentrations. 2-4 wells per plate containing media-only were included for background subtraction. Peripheral wells were filled with sterile water to minimize the effects of evaporation.
MOLM14 cells were treated with each of these drugs, alone and in combination with ART-838 or AS at an equipotency ratio based on the IC50s for each drug (Table 1). In Table 1, KOPN8 and MOLM14 cell lines were treated with a range of concentrations of each drug for 48 h then cytotoxicity was measured via alamarBlue assay. Results were normalized to cells treated with vehicle (≦0.5% DMSO) alone. IC50s were calculated using CompuSyn software and represent the means of at least three experiments performed in triplicate. Addition of ART-838 or AS enhanced the cytotoxicity of all six tested drugs across a range of concentrations (FIG. 2). Drug interactions were typically most favorable (more additive/synergistic or less antagonistic) at higher doses.

MOLM14 AML xenografts = experiment: Subcutaneous MOLM14 xenograft growth in NSG mice (SOR with AS); format: in vivo; conditions: SOR plus AS p.o.
Protocol: FIG. 15. AS enhanced in vivo efficacy of Sorafenib (SOR) against acute leukemia xenografts in NSG mice. […] Drug or vehicle were given p.o. on day 3-7, 17-21, and 31-35 when possible. Mouse tumors were measured on the indicated days.
The NSG mice were obtained, maintained and handled as described in the paragraph immediately above. AS was also formulated in Tween 80:ethanol (7:3, v:v) and diluted 1:10 in filtered deionized water immediately before administration. For the human AML xenograft model, 6-12-week-old male NSG mice (>20 g) were transplanted sc with MOLM14 cells on day 0 and drug-treated via oral gavage, as specified in legend. Mice were monitored daily and euthanized when tumors reached an estimated mass of 2000 mg as described in the paragraph immediately above.
Palpable tumors appeared about 2 weeks after transplantation.

MOLM14 cells [2] = experiment: ROS - mitochondrial superoxide (MitoSOX flow cytometry); format: cell-based, human
Protocol: FIGS. 4A-4D. […] CIs were computed as described above. CI<1 indicates synergy, CI=1, additivity, CI>1, antagonism. […] Cells were then loaded with 5 μM MitoSox for 30 min, washed, and analyzed by flow cytometry for MitoSox fluorescence (indicating mitochondrial superoxide) in the FL2 channel. […] Error bars represent the SEM of three independent experiments.

[3] = system: chemotherapy (doxorubicin, hydroxyurea, methotrexate, or vincristine)-resistant CEM (T-ALL) sub-lines; conditions: reference [27]; cited from earlier work
RCH-ACV = experiment: Kinase inhibitor drug combination screen (MTS, Bliss-independence analysis)
KOPN8 = experiment: as above
Kasumi-1 = experiment: as above; conditions: Kasumi-1, Drug 2 = ART-838 at approximate IC50, 48 h
MOLM14 and KOPN8 cells = experiment: Validation of ABT-199/ABT-737 + AS/ART-838 combinations, alamarBlue, Chou-Talalay; format: cell-based, human; conditions: MOLM14 and KOPN8, AS or ART-838 at IC50, 48 h
Protocol: FIGS. 10A-10B. Validation of cytotoxicity of ABT-199/ABT-737+AS/ART-838 combinations by alamarBlue assay. […] Each experiment was performed in triplicate. All data points between 0.1-99.9% growth inhibition were analyzed using the methods of Chou and Talalay and combination indices (CIs) calculated. CIs were graphed against the fractional effect (FE; the fraction of cells inhibited at each concentration). CI<1 indicates synergy, CI=1, additivity, CI>1, antagonism.
(§1) MOLM14 or KOPN8 cells were seeded in 96-well plates as described above for alamarBlue assays. Cells were treated with a certain concentrations of AS, or ART-838 or DHA, in combination with a range of concentrations of ABT-199 or ABT-263 or ABT-737. AlamarBlue assays were performed as described above. Each set of drugs or drug combinations was tested in triplicate. Chou-Talalay drug combination analysis was performed as above.
Cytotoxicity of the individual drugs and combinations was assessed using alamarBlue fluorescence, a more sensitive indicator of cell metabolism (as a surrogate for cell number) than MTS.
Drug combination interactions were assessed using the methods of Chou-Talalay, a more robust measure of synergy than the Bliss independence model. The Chou-Talalay method, however, can only be used at drug effect levels from 0.1-99.9%. […]

MOLM14 = experiment: Kinase inhibitor drug combination screen (MTS, Bliss-independence analysis)
[4] = system: MOLM14, Kasumi-1, KOPN8 and RCH-ACV leukemia cell lines; experiment: Kinase inhibitor drug combination screen, summary over the four leukemia cell lines; conditions: for No. Cell Lines: cell lines synergistically inhibited (>10% over Bliss) by drug 1 combined with AS and/or ART-838; for average inhibition over the Bliss prediction: plus ART-838, average over synergistic cell lines; for average inhibition over the Bliss independence prediction: average over synergistic cell lines; for synergy with AS or ART-838: screens in four human leukemia cell lines
MOLM14 cells [5] = experiment: Combinations of AS, ART-838 or DHA with BCL-2 inhibitors, alamarBlue, 48 h; format: cell-based, human
Protocol: FIGS. 11A-11C. Antileukemic efficacy of ABT-199, ABT-263 or ABT-737 combined with AS or ART-838. […] Each experiment was performed in triplicate.
FIG. 12. […] MOLM14 cells were treated with increasing concentrations of ABT-199, ABT-263 or ABT-737 without or with DHA (500 nM and 1 μM) for 48hrs. Then cytotoxicity was evaluated by alamarBlue assays. Each experiment was performed in triplicate.
as §1

MOLM14 cells [6] = experiment: Apoptosis (APC Annexin-V / 7-AAD, FACS); format: cell-based, human; conditions: MOLM14, ABT-199 plus AS or ART-838, 24 hrs
Protocol: FIG. 13. […] MOLM14 cells were treated with ABT-199 and/or AS (upper panel) or ART-838 (lower panel) for 24 hrs. Cells were stained with APC Annexin-V and 7-AAD and analyzed by fluorescence-activated cell sorting (FACS) to assess apoptotic cells. The early apoptotic population was defined as APC Annexin-V (+) and 7-AAD (−). The total apoptotic population was defined as APC Annexin-V (+). Each experiment was performed in triplicate. […].
Drug or vehicle-treated cells (1-5×10^5/sample) were washed with cold PBS, resuspended in Annexin-V binding buffer, co-stained with 5 μl each of APC Annexin-V and 7-AAD viability dye (all from BioLegend, San Diego, Calif.), and incubated for 15 minutes at room temperature in the dark then stored on ice until analysis (<30 minutes). Stained cells were analyzed using the FL3 and FL4 channels of an Accuri C6 flow cytometer. ˜10,000 non-debris cellular events were collected per sample and analyzed, as for cell cycle. The Annexin-V^−/7-AAD^− population was designated “viable,” the Annexin-V^+/7-AAD^− population was designated “early apoptotic,” and the Annexin-V^+/7-AAD^+ population was designated “dying/dead” [47].

[7] = Drug 2 = ART-838 at approximate IC50, 48 h
[8] = Drug 2 = AS at approximate IC50, 48 h
[9] = KOPN8, Drug 2 = ART-838 at approximate IC50, 48 h
[10] = KOPN8, Drug 2 = AS at approximate IC50, 48 h
[11] = MOLM14, Drug 2 = ART-838 at approximate IC50, 48 h
[12] = MOLM14, Drug 2 = AS at approximate IC50, 48 h

fractional inhibition over Bliss prediction (RCH-ACV; [7]) | fractional inhibition over Bliss prediction (RCH-ACV; [8]) | fractional inhibition over Bliss prediction (KOPN8; [9]) | fractional inhibition over Bliss prediction (KOPN8; [10]) | fractional inhibition over Bliss prediction (MOLM14; [11]) | fractional inhibition over Bliss prediction (MOLM14; [12]) | Structure (SMILES) | cytotoxic efficacy on addition of AS or ART-838 (MOLM14 and KOPN8 cells) | No. Cell Lines [4] | cell lines in which combination was synergistic ([4]; plus ART-838) | average inhibition over the Bliss prediction [4] [%] | cell lines in which combination was synergistic ([4]; plus AS) | average inhibition over the Bliss independence prediction ([4]; plus AS) [%] | synergy with AS or ART-838 [4] | further results
 |  |  |  |  |  | CNC(=O)c1cc(Oc2ccc(NC(=O)Nc3ccc(Cl)c(C(F)(F)F)c3)cc2)ccn1 [SOR, sorafenib] |  |  |  |  |  |  |  | IC50 (MOLM14 cells [1]): 4 nM; IC50 (KOPN8 cells): 4200 nM; tumor growth (tumor size on day 24) (MOLM14 AML xenografts): inhibited tumor growth substantially more than did either drug alone; effect on AS-induced superoxide generation (MOLM14 cells [2]; MOLM14, combined with AS, 2.25x IC50s, 16 h): reduced
 |  |  |  |  |  | C[C@H]1[C@H](OC(=O)CCC(=O)O)O[C@@H]2O[C@@]3(C)CC[C@H]4[C@H](C)CC[C@@H]1[C@@]24OO3 [AS, artesunate] |  |  |  |  |  |  |  | efficacy against resistant sub-lines vs parental line [3]: as effective; mitochondrial superoxide (MitoSox MFI) (MOLM14 cells [2]; MOLM14, drug alone, 2.25x IC50, 16 h): increased
RCH-ACV (0.24) | RCH-ACV (0.23) | KOPN8 (0.28), | KOPN8 (0.25), | MOLM14 (0.34), | MOLM14 (0.50), | CN(C)CC[C@H](CSc1ccccc1)Nc1ccc(S(=O)(=O)NC(=O)c2ccc(N3CCN(Cc4ccccc4-c4ccc(Cl)cc4)CC3)cc2)cc1[N+](=O)[O-] [ABT-737] | potently increased the efficacy | 4/4 | 4/4 | 24 | 3/4 | 33 | Particularly strong synergy | fractional inhibition over Bliss prediction (Kasumi-1): Kasumi-1 (0.11),
RCH-ACV (0.35) | RCH-ACV (0.16) | KOPN8 (0.11), | KOPN8 (0.15), | MOLM14 (0.18), | MOLM14 (0.20), | CC1(C)CCC(CN2CCN(c3ccc(C(=O)NS(=O)(=O)c4ccc(NCC5CCOCC5)c([N+](=O)[O-])c4)c(Oc4cnc5[nH]ccc5c4)c3)CC2)=C(c2ccc(Cl)cc2)C1 [ABT-199] | potently increased the efficacy | 3/4 | 3/4 | 21 | 3/4 | 17 | Particularly strong synergy | leukemia cell growth inhibition (MOLM14 cells [5]; MOLM14, 37 nM ABT-199 alone): did not inhibit; growth inhibition (MOLM14 cells [5]; MOLM14, 37 nM ABT-199 together with ART-838 25 nM): 100%; growth inhibition (MOLM14 cells [5]; MOLM14, 37 nM ABT-199 together with AS 825 nM): 100%; induction of apoptosis (MOLM14 cells [6]): cooperated to induce apoptosis
